# Experimental data: patent US7071231B2, “Naphthalene ureas as glucose uptake enhancers” (Telik, Inc., priority 1999, dated 2006)
# Assays:
# CYP2C19 = CYP2C19 (Homo sapiens, UniProt P33261); experiment: P450 interactions: CYP2C19 inhibition; format: in vitro ADME; settings: human cytochromes P450
# From the text: (§1) A major pathway for elimination of drugs from the body, which may limit their effectiveness, is the cytochrome P450 system of the liver.
# CYP2D6 = CYP2D6 (Homo sapiens, UniProt P10635); experiment: P450 interactions: CYP2D6 inhibition; format: in vitro ADME; settings: human cytochromes P450
# From the text: as §1
# CYP3A4 = CYP3A4 (Homo sapiens, UniProt P08684); experiment: P450 interactions: CYP3A4 inhibition; format: in vitro ADME; settings: human cytochromes P450
# From the text: as §1
# human insulin receptor = target: T1, human insulin receptor (Homo sapiens, UniProt P06213); experiment: Whole-cell phosphorylation assay (3T3HIR cells); format: cell-based; settings: 15 min, anti-phosphotyrosine Western, various concentrations (FIG. 2)
# T1 construct: expressed in transfected cells; host or cells: NIH 3T3 (3T3HIR)
# Procedure: Whole-cell Phosphorylation Assay:
# The initial step in insulin signaling is phosphorylation of the insulin receptor in response to insulin binding. NIH 3T3 cells overexpressing human insulin receptor (3T3HIR) were grown for 2 days at a density of 2×10^5/ml cells in 6 well culture dishes in DMEM with 10% FBS and L-glutamine. Prior to the experiment the cells were serum-starved overnight with DMEM with 0.1% BSA. The following morning, the cells were washed with PBS and the medium was replaced with 150 mM NaCl, 1.7 mM KCl, 0.9 mM CaCl2, K2HPO4 (pH 7.4), to which were added either the experimental compounds, or their vehicle (DMSO). Insulin or its vehicle (0.01% BSA) was diluted in the assay buffer (containing test compound or vehicle, respectively) to a final concentration of 2.5 nM. After incubating for 15 min, the cells were washed with cold PBS twice and lysed in 50 mM Tris.HCl, pH 7.4 150 mM NaCl, 0.25% sodium deoxycholate, 1% NP-40, 1 mM EGTA, 1 mM PMSF, 1 mM Na3VO4, 1 mM NaF, 1 ug/ml each of Aprotinin, Leupeptin and Pepstatin. The cell lysates were clarified by centrifugation at 12000 rpm, and the supernatants were estimated for protein concentration. Total cell lysate ([…]) was boiled with 2× SDS-PAGE sample buffer for 3 min and loaded into 7.5% SDS-PAGE along with Amersham rainbow marker protein as a molecular weight standard. […]
# STZ/HFD rats = experiment: Multi-dosing in STZ/HFD rats; format: in vivo, rat; settings: 30 mg/kg oral daily, 3 days (FIG. 14)
# Procedure: Multi-Dosing in STZ/HFD Rats
# STZ/HFD rats were prepared as in example 19. Compound 15 or an equivalent amount of the vehicle (PBS) was administered daily by the oral route at a dose of 30 mg/kg. Blood samples were taken by an IACUC-approved protocol (tail cap method) immediately before each dose and 4 and 6 (day one only) hours later. Blood glucose levels were measured using a Glucometer Elite (Bayer, Elkhart, Ind.). The blood glucose levels of the vehicle-treated group fell over the course of the experiment as the animals recovered from the low dose of STZ (FIG. 14).
# STZ/HFD rat = experiment: Blood glucose determination in the STZ/HFD rat model of Type 2 diabetes; format: in vivo; settings: STZ/HFD rat
# From the text: Blood Glucose Determination in the STZ/HFD Rat Model of Type 2 Diabetes
# Representative compounds were also profiled in genetically normal rats given a high-fat diet followed by treatment with a low dose of streptozotocin (STZ/HFD). This treatment regimen recreates both the insulin resistance and the hyperglycemia seen in human Type 2 diabetes. Male CD rats (Jackson Labs, Bar Harbor Me.) were maintained according to NIH guidelines, housed two per cage, and fed either standard lab chow (Tekland Laboratory Diets, James Grain, San Jose, Calif.) or the same chow supplemented with chocolate bars, cookies, and potato chips such that their final diet contained 30% fat by weight (high-fat diet; HFD). After two weeks of this diet, the animals were given an injection of freshly-prepared streptozotocin (35 mg/kg, i.p.) and continued on the HFD. Animals that achieved glucose levels of 190 to 380 mg/dl were used in this study. At the end of the 12-hour light/dark cycle, and just prior to the experiment, the animals were moved to new cages with no food available until 4 hours after treatment. The compound or vehicle (PBS) was given p.o. by gavage, and blood was sampled by approved IACUC protocol using tail cap method. Glucose was determined using the Glucometer Elite (Bayer, Elkhart, Ind.).
# The reduction was maximal (20%) 4 hours after the administration of Compound 15.
# 3T3 L1 fibroblasts = experiment: Glucose transport activity assay (14C-2-deoxy-D-glucose uptake); format: cell-based
# In short: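 Differentiated 3T3 L1 adipocytes (IBMX/dexamethasone/insulin induction), serum-starved overnight, preincubated 30 min at 37 °C with compound ± insulin in pH 7.4 salt buffer, then 30 min with 5 μCi/ml 14C-2-deoxy-D-glucose. Lysate radioactivity counted; EC = concentration raising uptake above 150% of vehicle control.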
# T1 sequence (P06213 763-1382 limits assumed): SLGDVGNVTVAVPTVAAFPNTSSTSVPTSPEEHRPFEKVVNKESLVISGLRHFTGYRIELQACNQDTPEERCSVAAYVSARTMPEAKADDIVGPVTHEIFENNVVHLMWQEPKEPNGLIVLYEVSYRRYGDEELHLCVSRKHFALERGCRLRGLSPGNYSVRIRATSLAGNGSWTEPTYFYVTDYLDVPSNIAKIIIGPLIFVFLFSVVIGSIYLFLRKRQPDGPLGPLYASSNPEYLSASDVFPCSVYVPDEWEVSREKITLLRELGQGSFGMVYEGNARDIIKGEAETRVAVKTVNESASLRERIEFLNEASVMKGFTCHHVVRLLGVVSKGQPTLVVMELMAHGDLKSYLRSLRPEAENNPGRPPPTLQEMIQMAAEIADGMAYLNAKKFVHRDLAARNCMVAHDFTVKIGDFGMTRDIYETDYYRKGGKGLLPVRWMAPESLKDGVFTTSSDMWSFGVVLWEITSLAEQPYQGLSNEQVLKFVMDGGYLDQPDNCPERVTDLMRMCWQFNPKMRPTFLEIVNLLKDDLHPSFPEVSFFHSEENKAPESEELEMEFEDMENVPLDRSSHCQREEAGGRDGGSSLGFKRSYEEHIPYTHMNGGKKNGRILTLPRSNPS
# T1 sequence (P06213 28-758 partner limits assumed): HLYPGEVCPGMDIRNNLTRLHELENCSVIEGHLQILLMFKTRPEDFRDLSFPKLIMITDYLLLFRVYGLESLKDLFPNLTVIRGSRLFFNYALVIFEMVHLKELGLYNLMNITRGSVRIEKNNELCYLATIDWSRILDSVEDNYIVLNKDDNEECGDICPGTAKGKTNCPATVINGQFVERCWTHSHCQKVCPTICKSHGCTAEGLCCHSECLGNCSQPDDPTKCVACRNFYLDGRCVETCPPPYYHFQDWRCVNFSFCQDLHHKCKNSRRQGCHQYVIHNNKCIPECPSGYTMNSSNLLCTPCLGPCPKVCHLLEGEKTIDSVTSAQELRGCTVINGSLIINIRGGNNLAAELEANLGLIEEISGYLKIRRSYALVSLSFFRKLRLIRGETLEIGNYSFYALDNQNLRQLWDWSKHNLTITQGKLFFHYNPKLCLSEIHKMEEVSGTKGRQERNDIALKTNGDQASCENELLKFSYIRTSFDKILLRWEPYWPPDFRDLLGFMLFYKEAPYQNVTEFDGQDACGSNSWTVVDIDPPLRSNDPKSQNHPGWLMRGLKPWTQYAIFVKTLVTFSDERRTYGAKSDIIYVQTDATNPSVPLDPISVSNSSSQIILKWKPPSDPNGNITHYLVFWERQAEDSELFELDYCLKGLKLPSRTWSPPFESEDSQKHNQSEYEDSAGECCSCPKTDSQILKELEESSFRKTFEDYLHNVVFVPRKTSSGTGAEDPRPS
# Chain of CYP2D6 (P10635 whole entry): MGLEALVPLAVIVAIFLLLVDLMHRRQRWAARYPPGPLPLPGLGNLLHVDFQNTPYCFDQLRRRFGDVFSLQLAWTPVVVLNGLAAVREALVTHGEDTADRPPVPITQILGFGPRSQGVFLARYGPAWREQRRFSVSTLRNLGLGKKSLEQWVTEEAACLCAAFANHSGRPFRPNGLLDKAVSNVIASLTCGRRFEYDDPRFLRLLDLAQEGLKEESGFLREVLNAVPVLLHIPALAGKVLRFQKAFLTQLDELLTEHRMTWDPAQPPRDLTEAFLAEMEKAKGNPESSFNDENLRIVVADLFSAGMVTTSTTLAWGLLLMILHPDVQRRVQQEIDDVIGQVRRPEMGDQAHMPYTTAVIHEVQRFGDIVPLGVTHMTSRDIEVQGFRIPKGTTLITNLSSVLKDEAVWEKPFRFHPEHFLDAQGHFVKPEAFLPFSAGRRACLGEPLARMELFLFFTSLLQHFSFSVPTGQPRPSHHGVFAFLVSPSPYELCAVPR
# Chain of CYP2C19 (P33261 whole entry): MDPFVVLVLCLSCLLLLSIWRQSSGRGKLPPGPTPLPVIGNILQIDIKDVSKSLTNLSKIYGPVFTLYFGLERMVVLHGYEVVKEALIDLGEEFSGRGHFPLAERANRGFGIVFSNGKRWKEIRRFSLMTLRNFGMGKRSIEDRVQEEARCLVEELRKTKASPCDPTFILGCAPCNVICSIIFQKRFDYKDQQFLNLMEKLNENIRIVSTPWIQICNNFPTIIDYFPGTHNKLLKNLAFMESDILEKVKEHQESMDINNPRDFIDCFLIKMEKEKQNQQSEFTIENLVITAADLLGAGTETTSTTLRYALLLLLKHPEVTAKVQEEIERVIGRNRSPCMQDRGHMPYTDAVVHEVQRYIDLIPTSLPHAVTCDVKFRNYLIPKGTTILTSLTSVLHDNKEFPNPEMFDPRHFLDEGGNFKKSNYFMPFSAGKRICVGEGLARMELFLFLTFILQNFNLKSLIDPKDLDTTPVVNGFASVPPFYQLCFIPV
# Chain of CYP3A4 (P08684 whole entry): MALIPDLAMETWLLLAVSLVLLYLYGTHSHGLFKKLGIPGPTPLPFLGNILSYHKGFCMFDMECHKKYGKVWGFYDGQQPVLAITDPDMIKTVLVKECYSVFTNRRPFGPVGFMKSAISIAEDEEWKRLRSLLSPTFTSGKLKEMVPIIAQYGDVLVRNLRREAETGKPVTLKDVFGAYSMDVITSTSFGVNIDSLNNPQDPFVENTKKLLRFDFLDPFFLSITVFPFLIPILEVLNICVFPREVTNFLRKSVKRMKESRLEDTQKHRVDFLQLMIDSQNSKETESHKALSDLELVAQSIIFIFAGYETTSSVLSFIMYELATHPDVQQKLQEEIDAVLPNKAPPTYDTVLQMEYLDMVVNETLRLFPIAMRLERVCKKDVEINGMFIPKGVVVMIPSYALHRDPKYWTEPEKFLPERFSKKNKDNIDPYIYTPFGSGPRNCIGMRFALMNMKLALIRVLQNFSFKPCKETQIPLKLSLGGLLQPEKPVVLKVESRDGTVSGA
structure (smiles),measurement,setting,value
"O=C(Nc1ccc2c(O)cc(S(=O)(=O)Nc3cccc(S(=O)(=O)O)c3)cc2c1)Nc1ccc2c(O)cc(S(=O)(=O)Nc3cccc(S(=O)(=O)O)c3)cc2c1 [Compound 15, 3-{[(4-hydroxy-7-{[N-(5-hydroxy-7-{[(3-sulfophenyl)amino]sulfonyl}(2-naphthyl))carbamoyl]amino}-2-naphthyl)sulfonyl]amino}benzenesulfonic acid]",inhibition of catalytic activity of CYP2C19,CYP2C19,did not inhibit
same,inhibition of catalytic activity of CYP2D6,CYP2D6,did not inhibit
same,inhibition of catalytic activity of CYP3A4,CYP3A4,did not inhibit
same,autophosphorylation of the insulin receptor in whole cells,human insulin receptor,increase of autophosphorylation
same,blood glucose levels versus vehicle-treated group,STZ/HFD rats,lowered blood glucose levels below those of the vehicle-treated group by 6 hours after administration
same,maximal reduction in blood glucose levels,STZ/HFD rat; p.o. by gavage (FIG. 11),20%
same,time of maximal reduction in blood glucose after administration,STZ/HFD rat; p.o. by gavage (FIG. 11),4 h
same,onset and duration of reduction in blood glucose levels,"STZ/HFD rat; p.o. by gavage, 6 hour experiment (FIG. 11)",beginning one hour after administration and persisting for the entire 6 hours of the experiment
same,EC (150% of vehicle control),"3T3 L1 fibroblasts; Mus musculus, EC (effective concentration) for increase in glucose transport, 14C-2-deoxy-D-glucose, 3T3 L1 cells, read-out: Concentration (μM) to reach >150% activity of vehicle control",3.2 µM
same,glucose uptake of cells,3T3 L1 fibroblasts; in the presence or absence of insulin (FIG. 3),increase in glucose uptake of cells
